Assay results reported in patent US9738634B2, “Heterocyclic amide compound and herbicide” (SYNGENTA PARTICIPATIONS AG, priority 2013, dated 2017).

Key:
Format in all cases: in vivo
black-grass [1] = assay: Test Example 3: weedkilling efficacy through soil treatment; H: black-grass; details: treatment dosage 315 g/ha
Method in brief: (§1)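 Crop and weed responses were judged three weeks after a uniform surface spray of the water-diluted emulsion at the given g/ha rate. Seeds sat beneath about 1.5 cm of sterilized diluvial soil, and boxes stood in a greenhouse at 25 to 30° C.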

transplanted rice = assay: Test Example 1: preemergent weed treatment in the submerged state, effect on crop; a: transplanted rice; details: treatment dosage 252 g/ha
Method in brief: (§2)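 Alluvial soil in Wagner pots flooded to 4 cm; barnyard grass, bulrush and oval-leafed pondweed seeds sown, then 2.5-leaf rice seedlings transplanted. Same day, emulsified compound diluted in water to set g/ha dosages and applied to water surface; greenhouse 25–30 °C, effect scored by criteria after 3 weeks.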

rapeseed [2] = assay: Test Example 3: soil treatment, effect on crop; g: rapeseed; details: treatment dosage 315 g/ha
Method in brief: as §1

barnyard grass [3] = assay: Test Example 1: weedkilling efficacy, preemergent weed treatment in the submerged state; A: barnyard grass; details: treatment dosage 252 g/ha
Method in brief: as §2

wheat [4] = assay: Test Example 4: foliar treatment, effect on crop; e: wheat; details: treatment dosage 315 g/ha
Method in brief: (§3)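 Seeds are spot-sown into sterilized diluvial soil and covered with about 1.5 cm of soil. After 14 days' greenhouse growth at 25 to 30° C, plants are sprayed on stems and leaves with diluted emulsion at the stated g/ha rate, then scored at 3 weeks.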

green foxtail [5] = assay: Test Example 3: weedkilling efficacy through soil treatment; E: green foxtail; details: treatment dosage 315 g/ha
Method in brief: as §1

oval-leafed pondweed [6] = assay: Test Example 1: weedkilling efficacy, preemergent weed treatment in the submerged state; C: oval-leafed pondweed; details: treatment dosage 252 g/ha
Method in brief: as §2

directly sown rice [7] = assay: Test Example 3: soil treatment, effect on crop; b: directly sown rice; details: treatment dosage 315 g/ha
Method in brief: as §1

wild oat [8] = assay: Test Example 4: weedkilling efficacy by foliar treatment; G: wild oat; details: treatment dosage 315 g/ha
Method in brief: as §3

common wind-grass [9] = assay: Test Example 3: weedkilling efficacy through soil treatment; J: common wind-grass; details: treatment dosage 315 g/ha
Method in brief: as §1

crabgrass [10] = assay: Test Example 3: weedkilling efficacy through soil treatment; D: crabgrass; details: treatment dosage 315 g/ha
Method in brief: as §1

black-grass [11] = assay: Test Example 4: weedkilling efficacy by foliar treatment; H: black-grass; details: treatment dosage 315 g/ha
Method in brief: as §3

bulrush [12] = assay: Test Example 1: weedkilling efficacy, preemergent weed treatment in the submerged state; B: bulrush; details: treatment dosage 252 g/ha
Method in brief: as §2

chickweed [13] = assay: Test Example 3: weedkilling efficacy through soil treatment; N: chickweed; details: treatment dosage 315 g/ha
Method in brief: as §1

chickweed [14] = assay: Test Example 4: weedkilling efficacy by foliar treatment; N: chickweed; details: treatment dosage 315 g/ha
Method in brief: as §3

crabgrass [15] = assay: Test Example 4: weedkilling efficacy by foliar treatment; D: crabgrass; details: treatment dosage 315 g/ha
Method in brief: as §3

birds-eye speedwell [16] = assay: Test Example 3: weedkilling efficacy through soil treatment; p: birds-eye speedwell; details: treatment dosage 315 g/ha
Method in brief: as §1

wheat [17] = assay: Test Example 3: soil treatment, effect on crop; e: wheat; details: treatment dosage 315 g/ha
Method in brief: as §1

redroot pigweed [18] = assay: Test Example 4: weedkilling efficacy by foliar treatment; L: redroot pigweed; details: treatment dosage 315 g/ha
Method in brief: as §3

rapeseed [19] = assay: Test Example 4: foliar treatment, effect on crop; g: rapeseed; details: treatment dosage 315 g/ha
Method in brief: as §3

corn [20] = assay: Test Example 4: foliar treatment, effect on crop; c: corn; details: treatment dosage 315 g/ha
Method in brief: as §3

soybean [21] = assay: Test Example 3: soil treatment, effect on crop; d: soybean; details: treatment dosage 315 g/ha
Method in brief: as §1

barnyard grass [22] = assay: Test Example 3: weedkilling efficacy through soil treatment; F: barnyard grass; details: treatment dosage 315 g/ha
Method in brief: as §1

green foxtail [23] = assay: Test Example 4: weedkilling efficacy by foliar treatment; E: green foxtail; details: treatment dosage 315 g/ha
Method in brief: as §3

Italian ryegrass [24] = assay: Test Example 4: weedkilling efficacy by foliar treatment; I: Italian ryegrass; details: treatment dosage 315 g/ha
Method in brief: as §3

catchweed [25] = assay: Test Example 4: weedkilling efficacy by foliar treatment; O: catchweed; details: treatment dosage 315 g/ha
Method in brief: as §3

redroot pigweed [26] = assay: Test Example 3: weedkilling efficacy through soil treatment; L: redroot pigweed; details: treatment dosage 315 g/ha
Method in brief: as §1

Italian ryegrass [27] = assay: Test Example 3: weedkilling efficacy through soil treatment; I: Italian ryegrass; details: treatment dosage 315 g/ha
Method in brief: as §1

directly sown rice [28] = assay: Test Example 4: foliar treatment, effect on crop; b: directly sown rice; details: treatment dosage 315 g/ha
Method in brief: as §3

soybean [29] = assay: Test Example 4: foliar treatment, effect on crop; d: soybean; details: treatment dosage 315 g/ha
Method in brief: as §3

barnyard grass [30] = assay: Test Example 2: weedkilling efficacy, growth period weed treatment in the submerged state; A: barnyard grass; details: treatment dosage 252 g/ha
Method in brief: (§4)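 First, alluvial soil in pots is flooded to 4 cm and mixed seed is sown. Next, plants grow in a greenhouse at 25 to 30° C until the 1-2 leaf stage. Then diluted emulsion is applied onto the water surface at the given g/ha rate, and injury is assessed after 3 weeks.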

birds-eye speedwell [31] = assay: Test Example 4: weedkilling efficacy by foliar treatment; p: birds-eye speedwell; details: treatment dosage 315 g/ha
Method in brief: as §3

Indian mallow [32] = assay: Test Example 3: weedkilling efficacy through soil treatment; K: Indian mallow; details: treatment dosage 315 g/ha
Method in brief: as §1

wild oat [33] = assay: Test Example 3: weedkilling efficacy through soil treatment; G: wild oat; details: treatment dosage 315 g/ha
Method in brief: as §1

bulrush [34] = assay: Test Example 2: weedkilling efficacy, growth period weed treatment in the submerged state; B: bulrush; details: treatment dosage 252 g/ha
Method in brief: as §4

common wind-grass [35] = assay: Test Example 4: weedkilling efficacy by foliar treatment; J: common wind-grass; details: treatment dosage 315 g/ha
Method in brief: as §3

corn [36] = assay: Test Example 3: soil treatment, effect on crop; c: corn; details: treatment dosage 315 g/ha
Method in brief: as §1

Indian mallow [37] = assay: Test Example 4: weedkilling efficacy by foliar treatment; K: Indian mallow; details: treatment dosage 315 g/ha
Method in brief: as §3

beet [38] = assay: Test Example 3: soil treatment, effect on crop; f: beet; details: treatment dosage 315 g/ha
Method in brief: as §1

oval-leafed pondweed [39] = assay: Test Example 2: weedkilling efficacy, growth period weed treatment in the submerged state; C: oval-leafed pondweed; details: treatment dosage 252 g/ha
Method in brief: as §4

barnyard grass [40] = assay: Test Example 4: weedkilling efficacy by foliar treatment; F: barnyard grass; details: treatment dosage 315 g/ha
Method in brief: as §3

catchweed [41] = assay: Test Example 3: weedkilling efficacy through soil treatment; O: catchweed; details: treatment dosage 315 g/ha
Method in brief: as §1

beet [42] = assay: Test Example 4: foliar treatment, effect on crop; f: beet; details: treatment dosage 315 g/ha
Method in brief: as §3

CC1=C(c2ccccc2)C(=O)N(C(C)(C)C(=O)Nc2cc(C)cnc2Cl)CO1 [B-3-04]
H (black-grass) weedkilling efficacy grade (black-grass [1]): 4 (weed kill ratio 70% or more, less than 90%)
a (transplanted rice) effect on crop grade (transplanted rice): 0 (weed kill ratio 5% or less (practically no effect))
g (rapeseed) effect on crop grade (rapeseed [2]): 0 (weed kill ratio 5% or less (practically no effect))
A (barnyard grass) weedkilling efficacy grade (barnyard grass [3]): 5 (weed kill ratio 90% or more, (practically complete withering))
e (wheat) effect on crop grade (wheat [4]): 0 (weed kill ratio 5% or less (practically no effect))
E (green foxtail) weedkilling efficacy grade (green foxtail [5]): 5 (weed kill ratio 90% or more, (practically complete withering))
C (oval-leafed pondweed) weedkilling efficacy grade (oval-leafed pondweed [6]): 4 (weed kill ratio 70% or more, less than 90%)
b (directly sown rice) effect on crop grade (directly sown rice [7]): 1 (weed kill ratio 5% or more, less than 20%)
G (wild oat) weedkilling efficacy grade (wild oat [8]): 3 (weed kill ratio 40% or more, less than 70%)
J (common wind-grass) weedkilling efficacy grade (common wind-grass [9]): 5 (weed kill ratio 90% or more, (practically complete withering))
D (crabgrass) weedkilling efficacy grade (crabgrass [10]): 5 (weed kill ratio 90% or more, (practically complete withering))
H (black-grass) weedkilling efficacy grade (black-grass [11]): 3 (weed kill ratio 40% or more, less than 70%)
B (bulrush) weedkilling efficacy grade (bulrush [12]): 5 (weed kill ratio 90% or more, (practically complete withering))
N (chickweed) weedkilling efficacy grade (chickweed [13]): 3 (weed kill ratio 40% or more, less than 70%)
N (chickweed) weedkilling efficacy grade (chickweed [14]): 3 (weed kill ratio 40% or more, less than 70%)
D (crabgrass) weedkilling efficacy grade (crabgrass [15]): 3 (weed kill ratio 40% or more, less than 70%)
P (birds-eye speedwell) weedkilling efficacy grade (birds-eye speedwell [16]): 4 (weed kill ratio 70% or more, less than 90%)
e (wheat) effect on crop grade (wheat [17]): 0 (weed kill ratio 5% or less (practically no effect))
L (redroot pigweed) weedkilling efficacy grade (redroot pigweed [18]): 0 (weed kill ratio 5% or less (practically no effect))
g (rapeseed) effect on crop grade (rapeseed [19]): 1 (weed kill ratio 5% or more, less than 20%)
c (corn) effect on crop grade (corn [20]): 0 (weed kill ratio 5% or less (practically no effect))
d (soybean) effect on crop grade (soybean [21]): 0 (weed kill ratio 5% or less (practically no effect))
F (barnyard grass) weedkilling efficacy grade (barnyard grass [22]): 5 (weed kill ratio 90% or more, (practically complete withering))
E (green foxtail) weedkilling efficacy grade (green foxtail [23]): 4 (weed kill ratio 70% or more, less than 90%)
I (Italian ryegrass) weedkilling efficacy grade (Italian ryegrass [24]): 3 (weed kill ratio 40% or more, less than 70%)
O (catchweed) weedkilling efficacy grade (catchweed [25]): 2 (weed kill ratio 20% or more, less than 40%)
L (redroot pigweed) weedkilling efficacy grade (redroot pigweed [26]): 0 (weed kill ratio 5% or less (practically no effect))
I (Italian ryegrass) weedkilling efficacy grade (Italian ryegrass [27]): 5 (weed kill ratio 90% or more, (practically complete withering))
b (directly sown rice) effect on crop grade (directly sown rice [28]): 0 (weed kill ratio 5% or less (practically no effect))
d (soybean) effect on crop grade (soybean [29]): 0 (weed kill ratio 5% or less (practically no effect))
A (barnyard grass) weedkilling efficacy grade (barnyard grass [30]): 4 (weed kill ratio 70% or more, less than 90%)
P (birds-eye speedwell) weedkilling efficacy grade (birds-eye speedwell [31]): 3 (weed kill ratio 40% or more, less than 70%)
K (Indian mallow) weedkilling efficacy grade (Indian mallow [32]): 0 (weed kill ratio 5% or less (practically no effect))
G (wild oat) weedkilling efficacy grade (wild oat [33]): 3 (weed kill ratio 40% or more, less than 70%)
B (bulrush) weedkilling efficacy grade (bulrush [34]): 4 (weed kill ratio 70% or more, less than 90%)
J (common wind-grass) weedkilling efficacy grade (common wind-grass [35]): 4 (weed kill ratio 70% or more, less than 90%)
c (corn) effect on crop grade (corn [36]): 0 (weed kill ratio 5% or less (practically no effect))
K (Indian mallow) weedkilling efficacy grade (Indian mallow [37]): 2 (weed kill ratio 20% or more, less than 40%)
f (beet) effect on crop grade (beet [38]): 1 (weed kill ratio 5% or more, less than 20%)
C (oval-leafed pondweed) weedkilling efficacy grade (oval-leafed pondweed [39]): 3 (weed kill ratio 40% or more, less than 70%)
F (barnyard grass) weedkilling efficacy grade (barnyard grass [40]): 3 (weed kill ratio 40% or more, less than 70%)
O (catchweed) weedkilling efficacy grade (catchweed [41]): 2 (weed kill ratio 20% or more, less than 40%)
f (beet) effect on crop grade (beet [42]): 2 (weed kill ratio 20% or more, less than 40%)
